From patent US10245261B2, “Substituted indol-5-ol derivatives and their therapeutic applications” (NantBioScience, Inc., priority 2013, dated 2019)

Experiments:
[1] = target: Abl(h) (Homo sapiens, UniProt P00519); experiment: KinaseProfiler kinase assay; format: biochemical
[2] = target: T1, Aurora-A(h) (Homo sapiens, UniProt O14965); experiment: KinaseProfiler kinase assay; format: biochemical; conditions: for inhibition at 1 µM: read-out: % Inhibition @1 μM Auroro-A
T1 sequence (O14965 1-403): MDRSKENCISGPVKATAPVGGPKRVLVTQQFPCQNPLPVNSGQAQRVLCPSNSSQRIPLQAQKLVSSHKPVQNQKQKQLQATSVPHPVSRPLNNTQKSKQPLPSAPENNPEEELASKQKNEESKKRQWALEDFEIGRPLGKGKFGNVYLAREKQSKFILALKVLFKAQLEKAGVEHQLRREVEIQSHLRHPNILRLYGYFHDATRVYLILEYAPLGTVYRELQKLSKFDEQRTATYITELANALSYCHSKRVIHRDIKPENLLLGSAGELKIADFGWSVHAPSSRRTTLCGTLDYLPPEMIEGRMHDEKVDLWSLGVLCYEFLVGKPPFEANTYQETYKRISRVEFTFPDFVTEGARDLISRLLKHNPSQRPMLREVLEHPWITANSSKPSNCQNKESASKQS
Summary of the method: (§1)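 Each enzyme was assayed radiometrically: 40 min room-temperature reaction with [γ-33P]ATP and 10 mM Mg acetate, acid-stopped, filtered, scintillation-counted.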

[3] = target: T2, Flt3(h) (Homo sapiens, UniProt P36888); experiment: KinaseProfiler kinase assay; format: biochemical
T2 sequence (P36888 27-993): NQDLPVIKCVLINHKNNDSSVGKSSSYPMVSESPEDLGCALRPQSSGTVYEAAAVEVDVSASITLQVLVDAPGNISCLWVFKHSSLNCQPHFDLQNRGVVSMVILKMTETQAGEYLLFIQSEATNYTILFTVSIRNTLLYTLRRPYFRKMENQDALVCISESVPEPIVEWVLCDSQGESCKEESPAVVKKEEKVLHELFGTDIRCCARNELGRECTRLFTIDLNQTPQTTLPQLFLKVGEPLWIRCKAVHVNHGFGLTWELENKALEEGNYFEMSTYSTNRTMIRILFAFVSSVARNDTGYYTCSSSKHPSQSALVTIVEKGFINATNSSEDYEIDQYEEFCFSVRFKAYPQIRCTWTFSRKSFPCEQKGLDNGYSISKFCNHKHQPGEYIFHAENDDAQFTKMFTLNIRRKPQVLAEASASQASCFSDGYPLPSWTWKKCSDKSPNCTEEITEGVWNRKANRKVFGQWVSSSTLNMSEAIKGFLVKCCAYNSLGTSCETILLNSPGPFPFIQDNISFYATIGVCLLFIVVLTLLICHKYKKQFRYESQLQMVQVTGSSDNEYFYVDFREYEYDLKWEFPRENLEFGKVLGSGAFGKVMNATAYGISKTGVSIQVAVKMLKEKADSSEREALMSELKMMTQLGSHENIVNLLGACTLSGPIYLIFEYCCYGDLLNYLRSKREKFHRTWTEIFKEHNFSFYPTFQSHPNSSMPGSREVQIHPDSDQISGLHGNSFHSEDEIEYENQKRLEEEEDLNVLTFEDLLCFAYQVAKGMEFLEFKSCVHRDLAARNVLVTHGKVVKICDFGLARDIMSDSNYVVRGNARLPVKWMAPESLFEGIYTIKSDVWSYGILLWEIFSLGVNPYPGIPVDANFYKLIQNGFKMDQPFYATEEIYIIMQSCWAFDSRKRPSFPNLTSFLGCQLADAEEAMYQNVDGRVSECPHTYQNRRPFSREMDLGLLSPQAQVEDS
Summary of the method: as §1

[4] = target: Ret(h) (Homo sapiens, UniProt P07949); experiment: KinaseProfiler kinase assay; format: biochemical
Summary of the method: as §1

[5] = target: cSRC(h) (Homo sapiens, UniProt P12931); experiment: KinaseProfiler kinase assay; format: biochemical
Summary of the method: as §1

[6] = target: KDR(h) (Homo sapiens, UniProt P35968); experiment: KinaseProfiler kinase assay; format: biochemical
[7] = system: K562; experiment: CellTiterBlue cell growth inhibition; format: cell-based; conditions: Homo sapiens; K562, 72 hours
Method: (§2) This example illustrated the proliferating cell growth inhibition of selected compounds from this invention. To do this, the cells were seeded into fresh Iscove's growth medium at a density of 0.4e6 cells/ml and grown in log phase for 24 hr. Cells were then resuspended in their fresh respective growth media at 0.1e^6 cells/ml and plated into 384 well black, clear-bottom microplates at 36 ul/well. Test compounds and controls were initially dissolved in DMSO at the desired concentration, then serially diluted to the assay buffer. These solutions were added and cells were incubated for 72 hours at 37° C. CellTiterBlue (Promega cat# G7572) was added on the Beckman FX. Plates were returned to the 37° C. CO2 incubator for 4 hr and then fluorescence was determined on the Victor plate reader. Data were processed using Microsoft Excel, and GI50 values were generated using Prism (GraphPad Software, San Diego, Calif.).

[8] = system: KU812; experiment: CellTiterBlue cell growth inhibition; format: cell-based; conditions: Homo sapiens; KU812, 72 hours
Method: as §2

[9] = system: MV4.11; experiment: CellTiterBlue cell growth inhibition; format: cell-based; conditions: Homo sapiens; MV4.11, 72 hours
Method: as §2

[10] = system: RS4.11; experiment: CellTiterBlue cell growth inhibition; format: cell-based; conditions: Homo sapiens; RS4.11, 72 hours
Method: as §2

[11] = system: human MIAPaCa-2 pancreatic carcinoma xenograft; experiment: Pancreatic carcinoma xenograft in athymic nude mice; format: in vivo, mouse; conditions: MIAPaCa-2 xenograft, nude mice, single agent
Method: The objective of the third study was to evaluate antitumor activities of novel multiple-kinase inhibitor NTW-3475 in human MIAPaCa-2 pancreatic carcinoma xenograft in athymic nude-Faxn1 mice.
Four animals were randomly assigned to study groups. Each animal was weighed, and then injected subcutaneously in the left and right flank area with 0.1 ml of 5.0×10^7 MIAPaCa-2 cells per mL.
Each test or control animal was on a 5-day on, two-day off for two cycles treatment schedule with negative control vehicle, positive control Abraxane at 20 mg/kg or 25, 50 mg/kg of NTW-3475. Tumor growth was measured with a digital hand held caliper twice weekly (once tumor emerges) prior to the first dosing and then two to three times weekly until euthanized.
The objective of the third study was to evaluate antitumor activities of novel multiple-kinase inhibitor Compound 10, 11, 12, 53, 68, 82, 83, 88, and 90 in human MIAPaCa-2 pancreatic carcinoma xenograft in athymic nude-Faxn1 mice.
Each test or control animal was on a 5-day on, two-day off for three cycles treatment schedule with negative control vehicle or 40 mg/kg of Compound 10, 11, 12, 53, 68, 82, 83, 88 and 90. Tumor growth was measured with a digital hand held caliper twice weekly (once tumor emerges) prior to the first dosing and then two to three times weekly until euthanized.

[12] = system: AN3.CA; experiment: CellTiterBlue cell growth inhibition; format: cell-based; conditions: Homo sapiens, 72 hours
Method: as §2

[13] = system: TT; experiment: CellTiterBlue cell growth inhibition; format: cell-based; conditions: Homo sapiens, 72 hours
Method: as §2

Sequence of cSRC(h) (P12931 whole entry): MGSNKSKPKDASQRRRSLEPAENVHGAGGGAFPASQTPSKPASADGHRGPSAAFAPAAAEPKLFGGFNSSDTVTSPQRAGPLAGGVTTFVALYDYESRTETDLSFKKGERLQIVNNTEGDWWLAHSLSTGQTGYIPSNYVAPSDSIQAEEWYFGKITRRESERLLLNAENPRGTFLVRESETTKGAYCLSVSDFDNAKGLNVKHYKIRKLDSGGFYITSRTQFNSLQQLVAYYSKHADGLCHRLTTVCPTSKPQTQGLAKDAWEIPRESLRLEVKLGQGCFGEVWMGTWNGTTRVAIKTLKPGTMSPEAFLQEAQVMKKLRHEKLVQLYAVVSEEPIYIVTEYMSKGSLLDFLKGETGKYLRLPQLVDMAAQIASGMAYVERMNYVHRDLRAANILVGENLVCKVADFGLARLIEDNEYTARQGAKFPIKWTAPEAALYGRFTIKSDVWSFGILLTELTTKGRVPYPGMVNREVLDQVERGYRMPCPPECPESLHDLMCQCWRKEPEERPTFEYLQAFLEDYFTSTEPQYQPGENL
Sequence of Ret(h) (P07949 29-1114): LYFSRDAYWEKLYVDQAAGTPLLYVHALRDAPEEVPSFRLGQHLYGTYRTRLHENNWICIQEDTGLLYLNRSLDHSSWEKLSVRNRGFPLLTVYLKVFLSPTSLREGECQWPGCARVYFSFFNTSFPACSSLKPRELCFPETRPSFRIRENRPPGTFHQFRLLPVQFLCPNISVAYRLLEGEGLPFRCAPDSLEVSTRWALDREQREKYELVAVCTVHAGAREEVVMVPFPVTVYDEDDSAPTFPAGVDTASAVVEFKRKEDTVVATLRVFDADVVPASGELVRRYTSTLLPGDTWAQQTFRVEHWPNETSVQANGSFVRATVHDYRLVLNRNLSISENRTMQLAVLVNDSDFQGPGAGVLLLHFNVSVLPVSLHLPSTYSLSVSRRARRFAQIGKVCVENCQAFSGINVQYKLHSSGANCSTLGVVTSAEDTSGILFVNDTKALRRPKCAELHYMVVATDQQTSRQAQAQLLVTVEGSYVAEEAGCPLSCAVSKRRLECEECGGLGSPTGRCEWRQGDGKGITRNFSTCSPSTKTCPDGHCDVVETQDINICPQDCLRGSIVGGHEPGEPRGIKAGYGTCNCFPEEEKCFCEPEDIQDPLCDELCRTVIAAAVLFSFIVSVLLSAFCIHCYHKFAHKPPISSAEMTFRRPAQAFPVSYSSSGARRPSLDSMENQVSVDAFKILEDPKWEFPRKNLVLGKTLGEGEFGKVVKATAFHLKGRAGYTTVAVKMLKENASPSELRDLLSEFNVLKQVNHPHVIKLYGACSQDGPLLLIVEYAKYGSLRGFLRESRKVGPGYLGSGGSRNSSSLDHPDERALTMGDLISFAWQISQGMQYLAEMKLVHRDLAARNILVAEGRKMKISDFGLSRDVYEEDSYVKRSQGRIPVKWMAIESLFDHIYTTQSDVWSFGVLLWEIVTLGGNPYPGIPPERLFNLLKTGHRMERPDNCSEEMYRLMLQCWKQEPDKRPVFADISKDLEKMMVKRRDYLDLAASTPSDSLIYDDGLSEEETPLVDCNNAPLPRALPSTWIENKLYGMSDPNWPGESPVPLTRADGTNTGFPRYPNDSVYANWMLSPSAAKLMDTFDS
Sequence of Abl(h) (P00519 whole entry): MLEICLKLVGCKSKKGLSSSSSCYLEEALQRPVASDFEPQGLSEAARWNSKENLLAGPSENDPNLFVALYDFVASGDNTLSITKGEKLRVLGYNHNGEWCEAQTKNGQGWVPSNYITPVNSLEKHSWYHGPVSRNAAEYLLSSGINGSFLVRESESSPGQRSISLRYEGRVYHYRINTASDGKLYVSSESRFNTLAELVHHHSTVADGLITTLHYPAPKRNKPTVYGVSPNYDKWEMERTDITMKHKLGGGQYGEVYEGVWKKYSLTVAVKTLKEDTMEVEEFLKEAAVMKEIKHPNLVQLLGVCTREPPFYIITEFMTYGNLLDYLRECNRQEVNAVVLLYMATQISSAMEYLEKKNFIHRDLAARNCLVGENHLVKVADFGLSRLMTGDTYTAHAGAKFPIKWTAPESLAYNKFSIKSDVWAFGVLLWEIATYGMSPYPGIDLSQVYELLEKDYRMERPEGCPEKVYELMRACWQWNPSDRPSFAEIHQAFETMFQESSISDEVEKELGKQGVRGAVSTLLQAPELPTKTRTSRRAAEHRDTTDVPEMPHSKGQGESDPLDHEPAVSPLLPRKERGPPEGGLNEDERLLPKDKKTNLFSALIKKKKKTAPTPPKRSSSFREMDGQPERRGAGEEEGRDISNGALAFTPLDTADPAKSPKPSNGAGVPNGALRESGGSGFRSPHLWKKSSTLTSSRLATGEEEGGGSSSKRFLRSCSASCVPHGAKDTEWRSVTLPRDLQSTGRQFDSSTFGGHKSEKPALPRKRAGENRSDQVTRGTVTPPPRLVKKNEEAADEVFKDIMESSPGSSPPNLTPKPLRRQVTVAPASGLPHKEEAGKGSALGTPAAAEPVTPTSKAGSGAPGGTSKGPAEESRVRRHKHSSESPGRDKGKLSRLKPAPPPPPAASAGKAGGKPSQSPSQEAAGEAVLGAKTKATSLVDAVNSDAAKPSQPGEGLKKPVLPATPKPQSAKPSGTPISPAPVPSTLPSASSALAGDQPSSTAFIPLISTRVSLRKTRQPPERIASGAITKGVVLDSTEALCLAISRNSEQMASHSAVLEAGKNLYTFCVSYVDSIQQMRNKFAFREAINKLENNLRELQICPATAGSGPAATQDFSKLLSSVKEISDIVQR
Sequence of KDR(h) (P35968 20-1356): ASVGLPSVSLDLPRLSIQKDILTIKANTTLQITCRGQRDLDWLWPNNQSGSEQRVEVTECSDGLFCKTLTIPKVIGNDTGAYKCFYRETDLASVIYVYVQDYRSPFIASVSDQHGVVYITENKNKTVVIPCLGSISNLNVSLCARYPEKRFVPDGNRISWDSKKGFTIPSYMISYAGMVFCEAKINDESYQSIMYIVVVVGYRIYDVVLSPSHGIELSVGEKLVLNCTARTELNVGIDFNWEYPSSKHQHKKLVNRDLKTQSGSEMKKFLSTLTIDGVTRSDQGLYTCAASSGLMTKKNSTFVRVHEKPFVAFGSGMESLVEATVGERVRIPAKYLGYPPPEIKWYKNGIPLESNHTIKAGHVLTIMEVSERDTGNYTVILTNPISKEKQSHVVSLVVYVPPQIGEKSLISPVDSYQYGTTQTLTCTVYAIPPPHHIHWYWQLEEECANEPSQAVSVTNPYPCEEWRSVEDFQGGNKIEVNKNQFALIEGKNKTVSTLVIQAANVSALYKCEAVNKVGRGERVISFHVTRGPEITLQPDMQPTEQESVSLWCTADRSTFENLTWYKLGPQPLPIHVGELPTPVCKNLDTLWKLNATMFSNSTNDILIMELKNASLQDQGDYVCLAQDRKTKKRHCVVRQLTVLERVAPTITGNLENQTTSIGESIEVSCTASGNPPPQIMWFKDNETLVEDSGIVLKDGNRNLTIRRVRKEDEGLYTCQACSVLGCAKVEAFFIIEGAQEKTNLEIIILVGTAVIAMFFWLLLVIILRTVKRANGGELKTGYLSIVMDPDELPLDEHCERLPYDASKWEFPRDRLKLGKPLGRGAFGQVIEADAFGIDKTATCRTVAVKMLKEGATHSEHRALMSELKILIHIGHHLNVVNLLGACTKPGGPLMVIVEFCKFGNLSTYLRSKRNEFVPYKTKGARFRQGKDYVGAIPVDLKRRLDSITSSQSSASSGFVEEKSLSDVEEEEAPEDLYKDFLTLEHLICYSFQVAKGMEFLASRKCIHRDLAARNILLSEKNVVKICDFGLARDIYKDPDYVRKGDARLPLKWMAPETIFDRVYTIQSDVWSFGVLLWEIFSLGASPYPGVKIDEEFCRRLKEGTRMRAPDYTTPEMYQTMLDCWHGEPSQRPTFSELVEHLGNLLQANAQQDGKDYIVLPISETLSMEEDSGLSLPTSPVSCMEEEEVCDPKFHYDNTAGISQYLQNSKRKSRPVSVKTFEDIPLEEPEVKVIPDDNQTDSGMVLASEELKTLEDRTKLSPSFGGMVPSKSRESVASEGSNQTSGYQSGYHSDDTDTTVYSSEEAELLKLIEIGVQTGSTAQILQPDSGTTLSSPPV

| inhibition at 1 µM [1] [%] | inhibition at 1 µM [2] [%] | inhibition at 1 µM [3] [%] | inhibition at 1 µM [4] [%] | inhibition at 1 µM [5] [%] | inhibition at 1 µM [6] [%] | GI50 [7] [nM] | GI50 [9] [nM] | GI50 [10] [nM] | IC50 ([1]; read-out: IC50 (nM) Abl (h)) [nM] | IC50 ([2]; read-out: IC50 (nM) Auroro-A (h)) [nM] | IC50 ([3]; read-out: IC50 (nM) Flt3 (h)) [nM] | IC50 ([4]; read-out: IC50 (nM) Ret (h)) [nM] | IC50 ([5]; read-out: IC50 (nM) cSrc (h)) [nM] | Compound | GI50 [8] [nM] | anti-tumor effect [11] | GI50 [12] [nM] | GI50 [13] [nM] |
| --- | --- | --- | --- | --- | --- | --- | --- | --- | --- | --- | --- | --- | --- | --- | --- | --- | --- | --- |
| 110 | 100 | 99 | 101 | 99 | 96 | 0.55 | 0.4 | 3.3 |  |  |  |  |  | Cc1cc2c(F)c(Oc3nc(Nc4cc(C5CC5)[nH]n4)cc(N4CCN(CCO)CC4)n3)cc(F)c2[nH]1 [Compound 83] | 0.67 | strong anti-tumor effect |  |  |
| 112 | 100 | 100 | 101 | 100 | 96 | 0.28 | 0.41 | 3.22 | 0.5 | 2 | 0.3 | 1 | 2 | Cc1cc2c(F)c(Oc3nc(Nc4cc(C5CC5)[nH]n4)cc(N4CCN(CCO)CC4)n3)ccc2[nH]1 [Compound 12] | 0.27 | strong anti-tumor effect |  |  |

| Compound | inhibition at 1 µM [1] [%] | inhibition at 1 µM [2] [%] | inhibition at 1 µM [3] [%] | inhibition at 1 µM [4] [%] | inhibition at 1 µM [5] [%] | inhibition at 1 µM [6] [%] | GI50 [7] [nM] | GI50 [9] [nM] | GI50 [10] [nM] | IC50 ([1]; read-out: IC50 (nM) Abl (h)) [nM] | IC50 ([2]; read-out: IC50 (nM) Auroro-A (h)) [nM] | IC50 ([3]; read-out: IC50 (nM) Flt3 (h)) [nM] | IC50 ([4]; read-out: IC50 (nM) Ret (h)) [nM] | IC50 ([5]; read-out: IC50 (nM) cSrc (h)) [nM] | GI50 [8] [nM] | anti-tumor effect [11] | GI50 [12] [nM] | GI50 [13] [nM] |
| --- | --- | --- | --- | --- | --- | --- | --- | --- | --- | --- | --- | --- | --- | --- | --- | --- | --- | --- |
| C/C=C/c1cc(Nc2cc(N3CCNCC3)nc(Oc3cc(F)c4[nH]c(C)cc4c3F)n2)n[nH]1 [Compound 90] | 112 | 100 | 100 | 99 | 101 | 95 | 0.85 | 0.13 | 5.07 |  |  |  |  |  | 0.9 | strong anti-tumor effect | 2 | 3.8 |
